Publication PMC11696576, “Next generation thiazolyl ketone inhibitors of cytosolic phospholipase A2 α for targeted cancer therapy” (Nature Communications, 2025)
“And” between values parts separate entries of the source, which are not always exact repeats. Identical values can stand only once. Like-named read-outs stand apart in the source and are kept apart here.

System: panel of 66 cancer cell lines
Test: cancer cell line screen, proliferation assay (ATPlite, 72 h)
Assay type: cell-based, human
Details: for raw signal, dose-response (Figure S7a): rep1, rep2, listed as AVX235; for IC50: Homo sapiens
Excerpt: Targeting specific molecular vulnerabilities in cancer is considered a key approach to reducing the adverse effects of chemotherapy. However, the events that govern the susceptibility to suppression of the cPLA2α in cancer remain largely unexplored. We therefore took the approach of screening the antiproliferative activity of AVX420 in a panel of 66 cancer cell lines (hereafter referred to as the cancer cell line screen or CCLS) to allow us to investigate molecular and genetic vulnerabilities to the drug.
Screening of compound activities in 66 cancer cell lines was carried out at the Netherlands Translation Research Center. Briefly, proliferation assays were performed 72 h after compound addition using ATPlite 1step reagent (Perkin Elmer). IC50s calculated by non-linear regression analysis were used as a measure of compound activity for investigating associations with genetic factors. A complete description of the laboratory and data analysis methods are available in the Supplementary Information file (Supplemental Methods: Cancer Cell Line Screening).
Cancer cell line screening
Cell proliferation assays
All cell lines were from the American Type Culture Collection (ATCC) Manassas, Virginia (US) and maintained under ATCC-recommended protocols and within 9 pas- […]
DMSO at -80°C until one hour before use. Cells exposed within one hour after thaw-ing of the compound stocks. Final compound concentration range in the assay was 10 […]
cated by supplier. Compounds were dissolved in 100 % DMSO and stored at room temperature. Final concentration of the reference compounds in the assay was 3.16x10-5 M to 3.16x10-9 M. The final DMSO concentration during incubation was […]
Cell lines were plated in Advanced RPMI 1640 (Gibco, ref 12633-012) cell culture medium, containing 1% Glutamax solution (Gibco, ref 35050-038), 0.4% Pen Strep solution (Gibco, ref 15140-122) and bovine serum. The cPLA2α inhibitors were tested in 0.5% bovine serum (HyClone, ref SH30072.03) with the exception of769-P, A-204, BT-549, SR, T98G, which were tested in the presence of 1.0% serum and A-704 and LNCaP FGS, which were tested in the in the presence of 10% serum. Reference com-pounds were all tested in the presence of 10% bovine serum.
Cells were dispensed in a 384-well plate, at a concentration of 200 - 3200 cells per well, depending on the cell line, in 45 μL medium. Plated cells were incubated in a humidified atmosphere of 5% CO2 at 37 °C. After 24 hours, 5 μL of compound dilu-tion was added and plates were further incubated for another 72 hours. After 72 hours, 25 μL of ATPlite 1Step™ (PerkinElmer) solution was added to each well, and subse-quently shaken for 2 minutes. After 10 minutes of incubation in the dark, the lumines-cence was recorded on an Envision multimode reader (PerkinElmer).
Cell growth control. The cellular doubling times of all cell lines are calculated from the t = 0 hours and t = 72 hours growth signals of the untreated cells. If the doubling time is out of specification (0.5 – 2.0 times deviating from historic average) the assay […]
IC50s were calculated by non-linear regression using IDBS XLfit 5. The percentage growth after 72h (%-growth) was calculated as follows: 100% x (luminescence t = 72h / luminescence untreated,t=72h). This was fitted to the 10log compound concentration (conc) by a 4-parameter logistics curve: %-growth = bottom + (top – bottom) / (1+ 10(logIC50 – conc)*hill)), where hill is the Hill-coefficient, and bottom and top the asymptotic mini-mum and maximum cell growth that the compound allows in that assay.
All analysis were performed in the statistical software package R and visualized using GraphPad Prism version 10.0 .0

## CCCCCCCCc1ccc(OCC(=O)c2nc(C(=O)OC)cs2)cc1 [GK470]
10log of IC50 in nM, panel average
  average panel 10logIC50: 4.20
769P, kidney
  pIC50: 4,709
786O, kidney
  pIC50: 4,868
A172, central_nervous_system
  pIC50: 4,701
A204, soft_tissue
  pIC50: 4,858
A375, skin
  pIC50: 4,792
A427, lung
  pIC50: 4,933
A498, kidney
  pIC50: 4,604
A549, lung
  pIC50: 4,718
ACHN, kidney
  pIC50: 4,677
AN3CA, endometrium
  pIC50: 4,738
AU565, breast
  pIC50: 4,915
AsPC1, pancreas
  pIC50: 4,828
BT20, breast
  pIC50: 4,526
BT549, breast
  pIC50: 4,643
BxPC3, pancreas
  pIC50: 4,719
C33A, cervix
  pIC50: 4,835
CAL27, upper_aerodigestive_tract
  pIC50: 4,767
CCRF-CEM, Log10 M -4
  raw signal, dose-response (Figure S7a): 6827 and 7267
CCRF-CEM, Log10 M -6
  raw signal, dose-response (Figure S7a): 6001427 and 6137653
CCRF-CEM, Log10 M -6.5
  raw signal, dose-response (Figure S7a): 6250880 and 6122947
CCRF-CEM, Log10 M -7
  raw signal, dose-response (Figure S7a): 6208933 and 6388787
CCRF-CEM, Log10 M -7.5
  raw signal, dose-response (Figure S7a): 5662213 and 5677453
CCRF-CEM, Log10 M -8
  raw signal, dose-response (Figure S7a): 5954640 and 6349707
COLO829, unknown
  pIC50: 4,775
Daoy, central_nervous_system
  pIC50: 4,799
DoTc24510, cervix
  pIC50: 4,777
FaDu, upper_aerodigestive_tract
  pIC50: 4,794
HCT15, large_intestine
  pIC50: 4,921
HCT116, large_intestine
  pIC50: 4,798
769-P, read-out: IC50
  IC50: 19.6 µM
786-0, 786-O, read-out: IC50
  IC50: 13.6 µM
72 h, panel average, 72 h, read-out: average IC50 in the cancer cell line screen
  IC50: 16.3 µM
A 172, A-172, read-out: IC50
  IC50: 19.9 µM
A204, A-204, read-out: IC50
  IC50: 13.9 µM
A388, cervix, read-out: pIC50 (converted)
  IC50: 14.5 µM
A388, read-out: IC50
  IC50: 14.5 µM
A498, A-498, read-out: IC50
  IC50: 24.9 µM
A549, A-549, read-out: IC50
  IC50: 19.1 µM
A704, A704, kidney, read-out: pIC50 (converted)
  IC50: 34 µM
A704, A-704, read-out: IC50
  IC50: > 100 µM
A-375, A375, read-out: IC50
  IC50: 16.1 µM
A-427, A-427, read-out: IC50
  IC50: 11.7 µM
ACHN, read-out: IC50
  IC50: 21.1 µM
AN3-CA, AN3 CA, read-out: IC50
  IC50: 18.3 µM
ASPC1, AsPC-1, read-out: IC50
  IC50: 14.8 µM
AU565, AU-565, read-out: IC50
  IC50: 12.2 µM
BT-20, BT-20, read-out: IC50
  IC50: 29.8 µM
BT-549, BT-549, read-out: IC50
  IC50: 22.7 µM
BXPC-3, BxPC-3, read-out: IC50
  IC50: 19.1 µM
C-33-A, C-33 A, read-out: IC50
  IC50: 14.6 µM
CAL-27, CAL 27, read-out: IC50
  IC50: 17.1 µM
CCRF-CEM, CCRFCEM, blood, read-out: pIC50 (converted)
  IC50: 11.7 µM
CCRF-CEM, read-out: IC50
  IC50: 11.7 µM
COLO 205, COLO 205, read-out: IC50
  IC50: 18.5 µM
COLO-829, COLO 829, read-out: IC50
  IC50: 16.8 µM
DLD-1, DLD1, large_intestine, read-out: pIC50 (converted)
  IC50: 13.8 µM
DLD-1, DLD-1, read-out: IC50
  IC50: 13.8 µM
DU-145, DU 145, read-out: IC50
  IC50: 19.3 µM
Daoy, read-out: IC50
  IC50: 15.9 µM
DoTc2-4510, DoTc2 4510, read-out: IC50
  IC50: 16.7 µM
FaDu, read-out: IC50
  IC50: 16.1 µM
HCT-15, HCT-15, read-out: IC50
  IC50: 12 µM
HCT-116, HCT 116, read-out: IC50
  IC50: 15.9 µM
Hs-578T, Hs 578T, read-out: IC50
  IC50: 13.7 µM
J82, J82, read-out: IC50
  IC50: 15.8 µM
Jurkat E6.1, Jurkat E6.1, read-out: IC50
  IC50: 12.5 µM
K562, K-562, read-out: IC50
  IC50: 10.9 µM
KU812, KU812, read-out: IC50
  IC50: 10.4 µM
LNCaP, LNCaP FGC, read-out: IC50
  IC50: > 100 µM
LS174T, LS 174T, read-out: IC50
  IC50: 13 µM
LoVo, read-out: IC50
  IC50: 19.3 µM
MCF7, MCF7, read-out: IC50
  IC50: 12.7 µM
MG-63, MG63, bone, read-out: pIC50 (converted)
  IC50: 20.4 µM
MG-63, MG-63, read-out: IC50
  IC50: 20.4 µM
MIA PaCa-2, MIA PaCa-2, read-out: IC50
  IC50: 10.9 µM
MOLT-4, MOLT-4, read-out: IC50
  IC50: 12 µM
MeWo, read-out: IC50
  IC50: 17.3 µM
NCI-H82, NCI-H82, read-out: IC50
  IC50: 13.7 µM
NCI-H460, NCI-H460, read-out: IC50
  IC50: 22.5 µM
OVCAR-3, OVCAR-3, read-out: IC50
  IC50: 14.3 µM
PA-1, PA-1, read-out: IC50
  IC50: 11.6 µM
RKO, read-out: IC50
  IC50: 8.87 µM
RPMI-7951, RPMI-7951, read-out: IC50
  IC50: 16.2 µM
RT-4, RT4, read-out: IC50
  IC50: 16.5 µM
SHP77, SHP-77, read-out: IC50
  IC50: 11.9 µM
SJCRH30, read-out: IC50
  IC50: 18.4 µM
